Results: patent publication EP2650284A1, “Heterocyclic derivatives as metabotropic glutamate receptor modulators” (Merz Pharma GmbH & Co. KGaA, priority 2012, dated 2013)
Where two headings read alike, the source gives them in different places. One block for each molecule: values may come before it.

Tests used:
[1] = target: T1, human metabotropic glutamate receptor mGluR5 (Homo sapiens, UniProt P41594); assay: Cytosolic calcium studies with stably transfected cells (h5CHO), functional assay of mGluR5 receptors; assay type: cell-based; conditions: for h left shift: h5CHO cells; for EC50: positive modulators, h5CHO cells preincubated with modulator, stimulated by an EC20 concentration of L-glutamate, read-out: hEC50
T1 construct: expressed in transfected cells; host or cells: CHO-K1 (h5CHO), IPTG-inducible
T1 sequence (P41594 21-1212): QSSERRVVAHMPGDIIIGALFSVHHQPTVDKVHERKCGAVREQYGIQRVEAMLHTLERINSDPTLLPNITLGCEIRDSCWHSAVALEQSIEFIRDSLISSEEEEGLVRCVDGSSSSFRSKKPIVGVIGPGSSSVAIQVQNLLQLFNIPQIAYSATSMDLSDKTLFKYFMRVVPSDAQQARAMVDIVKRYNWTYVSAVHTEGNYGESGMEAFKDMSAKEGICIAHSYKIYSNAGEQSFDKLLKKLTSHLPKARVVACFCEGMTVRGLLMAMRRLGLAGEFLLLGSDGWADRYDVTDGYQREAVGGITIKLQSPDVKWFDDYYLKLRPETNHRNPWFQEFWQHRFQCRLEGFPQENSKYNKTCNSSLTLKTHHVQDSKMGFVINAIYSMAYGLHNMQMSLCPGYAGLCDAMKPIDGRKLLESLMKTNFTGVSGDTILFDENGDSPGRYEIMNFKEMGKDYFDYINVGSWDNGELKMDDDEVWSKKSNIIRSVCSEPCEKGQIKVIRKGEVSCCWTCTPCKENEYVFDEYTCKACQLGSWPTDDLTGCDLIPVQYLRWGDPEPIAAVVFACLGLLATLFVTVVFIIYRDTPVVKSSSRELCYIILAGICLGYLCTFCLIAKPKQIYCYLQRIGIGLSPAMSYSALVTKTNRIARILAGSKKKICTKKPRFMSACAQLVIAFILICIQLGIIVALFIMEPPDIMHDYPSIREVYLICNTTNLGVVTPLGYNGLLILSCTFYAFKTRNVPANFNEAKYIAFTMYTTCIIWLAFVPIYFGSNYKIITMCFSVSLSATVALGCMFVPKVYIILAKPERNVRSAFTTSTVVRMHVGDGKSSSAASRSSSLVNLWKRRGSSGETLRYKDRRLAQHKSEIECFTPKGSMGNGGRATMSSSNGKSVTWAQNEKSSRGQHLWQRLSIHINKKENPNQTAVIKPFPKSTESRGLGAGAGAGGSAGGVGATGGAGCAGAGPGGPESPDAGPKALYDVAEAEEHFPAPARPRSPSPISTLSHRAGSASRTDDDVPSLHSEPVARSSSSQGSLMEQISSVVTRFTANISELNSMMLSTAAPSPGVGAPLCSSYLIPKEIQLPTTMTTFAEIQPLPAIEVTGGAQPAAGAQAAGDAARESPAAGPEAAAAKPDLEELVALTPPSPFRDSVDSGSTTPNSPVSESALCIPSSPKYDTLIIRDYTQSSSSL
Experimental: Chinese hamster ovary cells (CHO-K1 cells), stably transfected for inducible expression of a human metabotropic glutamate receptor mGluR5 to form a cell line called h5CHO, are seeded into black clear bottom 96 well plates at a density of 35.000 cells per well. The standard growth medium used (Dulbecco's modified Eagle Medium, DMEM plus L-proline) contains the appropriate inducer isopropyl-β-D-thiogalactopyranosid (IPTG) to achieve optimal receptor expression. One day after seeding the growth medium is exchanged for reconstituted Ca-Kit (Molecular Devices, USA) and incubated for one hour. Ca-Kit is reconstituted in an assay buffer containing 20 mM HEPES pH 7.4, glutamic-pyruvate transaminase, pyridoxal phosphate and sodium pyruvate in Hank's balanced salt solution (HBBS). Agonistic compounds to the receptor elicit increases in cytosolic calcium which can be measured as increases in fluorescence signals by use of a fluorescence imaging plate reader (Molecular Devices). To analyze their potency to negatively modulate the Ca-response test compounds, dissolved in a final DMSO concentration of 0.5%, are added on-line 5 minutes before the agonist to the receptor (L-quisqualic acid at a concentration giving ~80% of the maximal signal). EC50 values for positive allosteric modulators were determined by stimulating the cells which have been preincubated the modulators by an EC20 concentration of L-glutamate.
(§1) The fluorescence signal increase after addition of agonist reflects the increase of cytosolic calcium. Inconsistencies in the amount of cells per well are normalised by using the spatial uniformity correction of the FLIPR operating software Screenworks. The mean of replicated temporal data (n=3-5) is calculated and used for graphical representation. For the evaluation of the pharmacology, the calcium changes in response to different concentrations of agonist or antagonist are determined using a maximum minus minimum (MaxMin) calculation.
(§2) All responses (RFU-values) are determined as percentage of control (= maximum response). EC50 and IC50 are calculated according the logistic equation using XLFit (IDBS, UK) or Prism 4.0 (GraphPad Software, USA). The compounds of the present invention have a potency (EC50 or IC50) within a range of about 0.5 nM to about 100 µM. The left shifts for positive or slient allosteric modulators (PAMs or SAMs, respectively) are determined by comparison of EC50 values from agonist dose response curves run in the presence of 10 µM modulator or vehicle (Vanejevs et al., J. Med. Chem., 2008, 51, 634-647).

mGluR5 receptors = target: T2, mGluR5 receptors (Rattus norvegicus, UniProt P31424); assay: Cytosolic calcium studies with astrocytes (FLIPR), functional assay of mGluR5 receptors; assay type: cell-based
T2 construct: Primary astrocyte cultures are prepared from cortices of newborn rats; endogenous in cells; host or cells: primary cortical astrocytes from Sprague-Dawley rat pups (2-4 d old)
T2 sequence (P31424 21-1203): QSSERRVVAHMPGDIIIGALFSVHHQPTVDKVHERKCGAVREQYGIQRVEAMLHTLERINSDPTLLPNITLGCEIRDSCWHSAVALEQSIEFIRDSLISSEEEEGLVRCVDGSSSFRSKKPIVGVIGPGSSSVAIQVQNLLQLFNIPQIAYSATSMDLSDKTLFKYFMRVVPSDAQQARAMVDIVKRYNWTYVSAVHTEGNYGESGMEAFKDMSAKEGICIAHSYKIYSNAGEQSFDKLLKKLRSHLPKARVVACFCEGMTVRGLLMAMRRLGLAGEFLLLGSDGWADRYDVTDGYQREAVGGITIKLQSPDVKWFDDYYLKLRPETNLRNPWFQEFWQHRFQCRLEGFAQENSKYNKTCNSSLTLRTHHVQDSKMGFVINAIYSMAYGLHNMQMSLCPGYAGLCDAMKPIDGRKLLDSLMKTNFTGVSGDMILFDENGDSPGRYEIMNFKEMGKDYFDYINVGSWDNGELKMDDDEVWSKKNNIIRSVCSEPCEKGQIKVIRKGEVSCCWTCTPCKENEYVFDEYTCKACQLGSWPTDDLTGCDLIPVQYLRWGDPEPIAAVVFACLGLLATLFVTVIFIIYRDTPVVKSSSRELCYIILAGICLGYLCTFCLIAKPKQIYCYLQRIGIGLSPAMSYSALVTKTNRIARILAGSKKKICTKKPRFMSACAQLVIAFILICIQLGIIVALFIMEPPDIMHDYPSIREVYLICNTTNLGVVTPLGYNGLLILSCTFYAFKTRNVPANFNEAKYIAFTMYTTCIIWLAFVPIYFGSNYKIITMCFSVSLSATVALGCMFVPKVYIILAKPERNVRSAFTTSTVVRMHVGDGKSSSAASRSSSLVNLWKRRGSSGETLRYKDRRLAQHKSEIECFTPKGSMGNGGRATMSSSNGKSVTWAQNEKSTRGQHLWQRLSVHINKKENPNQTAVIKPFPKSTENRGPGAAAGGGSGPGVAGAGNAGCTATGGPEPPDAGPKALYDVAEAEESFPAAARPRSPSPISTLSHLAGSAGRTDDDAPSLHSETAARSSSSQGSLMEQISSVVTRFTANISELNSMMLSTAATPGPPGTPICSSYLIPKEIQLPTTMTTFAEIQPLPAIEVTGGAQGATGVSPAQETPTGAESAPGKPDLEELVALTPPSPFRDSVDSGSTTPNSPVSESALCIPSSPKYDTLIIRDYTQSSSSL
Experimental: Primary astrocyte cultures are prepared from cortices of newborn rats as described by Booher and Sensenbrenner (1972, Neurobiology 2(3):97-105). Briefly, Sprague-Dawley rat pups (2 - 4 d old) are decapitated and neocortices are dissected, disintegrated with a nylon filter (pore size 80 µm) and carefully triturated. The cell suspension is plated on poly-D-lysine pre-coated flasks (Costar, Netherlands) and cultivated in Dulbecco's Modified Eagle's Medium (DMEM, Invitrogen, Germany) supplemented with 10% foetal calf serum (FCS, Sigma, Germany), 4 mM glutamine and 50 µg/ml gentamycin (both Biochrom, Germany) at 37°C in a humidified atmosphere of 5% CO2/ 95% air for 7 days with exchanging the medium at day 2 and 6.
After 7 days in vitro (DIV), cells are shaken overnight at 250 rpm to remove oligodendrocytes and microglia. The next day, astrocytes are rinsed twice with CMF-PBS (calcium- and magnesium-free phosphate buffered saline, Biochrom, Germany), trypsinized and subplated on poly-D-lysine pre-coated 96-well plates (Greiner, Germany) at a density of 40,000 cells/well. 24 h after establishing the secondary culture the astrocytes are rinsed with PBS^++ (phosphate buffered saline, Biochrom, Germany) and fed with astrocyte-defined medium (ADM) consisting of DMEM containing 1x G5-supplement (Invitrogen, Germany), 0.5 µg/ml heparan sulfate, and 1.5 µg/ml fibronectin (both Sigma, Germany) (Miller et al., (1993) Brain Res. 618(1):175-8). 3 days later the medium is exchanged and the cells incubated for another 2-3 days, so that at the time of experiments astrocytes are 14-15 DIV.
The increase of cytosolic calcium after stimulation with the mGluR5 agonist L-quisqualate is measured using a fluorometric imaging plate reader (FLIPR) and the Ca-Kit (both Molecular Devices). Prior to addition of agonist or antagonist the medium is aspirated and cells are loaded for 2 h at RT with 150 µl of loading buffer consisting of Ca-sensitive dye reconstituted in sodium chloride (123 mM), potassium chloride (5.4 mM), magnesium chloride (0.8 mM), calcium chloride (1.8 mM), D-glucose (15 mM), and HEPES (20 mM), pH 7.3. Subsequently, plates are transferred to FLIPR to detect calcium increase with the addition of L-quisqualate (100 nM) measured as relative fluorescence units (RFU). If antagonists are tested, these compounds are pre-incubated for 10 minutes at RT before addition of the respective agonist.
For positive modulators, concentration-response curves for quisqualate are performed in the presence and absence of 10 µM modulator to determine the extent of potentiation / agonist potency increase. Thereafter, concentration-response curves for the positive modulator are performed in the presence of a fixed concentration of quisqualate showing the biggest window for potentiation (normally 10-30 nM).
as §1, §2

[2] = Table A1, left shift of agonist EC50, dose response curves in the presence of 10 µM modulator or vehicle
[3] = Table A1, left shift of quisqualate EC50 in the presence and absence of 10 µM modulator
[4] = Table A1, positive modulators, fixed concentration of quisqualate (normally 10-30 nM), read-out: rEC50
[5] = Table A3 (SAMs / very weak PAMs), agonist EC50 shift with 10 µM modulator or vehicle
[6] = Table A3 (SAMs / very weak PAMs), quisqualate EC50 shift with 10 µM modulator
[7] = Table A3, given in brackets where Ki is n.d., read-out: r EC50

Structure (SMILES): CC(C)(C)[S+]([O-])N1CCc2ncc(C#Cc3ccccc3)cc2C1 (racemic) [Example 37, (rac)-6-(tert-Butylsulfinyl)-3-(phenylethynyl)-5,6,7,8-tetrahydro-1,6-naphthyridine]
- h left shift [1, 2]: 2.5-fold
- EC50 ([1]; Table A1): 0.472 µM
- r left shift (mGluR5 receptors; [3]): 3.3-fold
- EC50 (mGluR5 receptors; [4]): 0.508 µM

Structure (SMILES): COC(=O)N1C2CCC1c1cc(C#Cc3ccccc3)cnc1C2 (racemic) [Example 58, (rac)-Methyl 3-(phenylethynyl)-6,7,8,9-tetrahydro-5H-5,8-epiminocyclohepta[b]pyridine-10-carboxylate]
- h left shift [1, 2]: 2.3-fold
- EC50 ([1]; Table A1): 0.201 µM
- r left shift (mGluR5 receptors; [3]): 3.9-fold
- EC50 (mGluR5 receptors; [4]): 0.113 µM

Structure (SMILES): COC(=O)N1C2CCC1c1cc(C#Cc3cccc(F)c3)cnc1C2 (racemic) [Example 59, (rac)-Methyl 3-((3-fluorophenyl)ethynyl)-6,7,8,9-tetrahydro-5H-5,8-epiminocyclohepta[b]pyridine-10-carboxylate]
- h left shift [1, 2]: 1.8-fold
- EC50 ([1]; Table A1): 0.277 µM
- r left shift (mGluR5 receptors; [3]): 3.3-fold
- EC50 (mGluR5 receptors; [4]): 0.102 µM

Structure (SMILES): O=C(N1CCC1)N1CCO[C@@H]2c3cc(C#Cc4ccccc4)cnc3CC[C@@H]21 (racemic) [Example 65, (rac)-cis-Azetidin-1-yl-(9-(phenylethynyl)-5,6-dihydro-2H-[1,4]oxazino[2,3-f]quinolin-4(3H,4aH,10bH)-yl)methanone]
- h left shift [1, 2]: 1.8-fold
- EC50 (mGluR5 receptors; [4]): 3.2 µM

Structure (SMILES): O=C1OC2(CCCc3ncc(C#Cc4cccc(F)c4)cc32)CN1C1CC1 (racemic) [Example 76, (rac)-3-Cyclopropyl-3'-((3-fluorophenyl)ethynyl)-7',8'-dihydro-6'H-spiro[oxazolidine-5,5'-quinolin]-2-one]
- h left shift [1, 5]: 1.6-fold
- r left shift (mGluR5 receptors; [6]): 1.4-fold
- EC50 (mGluR5 receptors; [7]): 0.0505 µM

Structure (SMILES): COC(=O)N1CC[C@H]2CCc3cc(C#Cc4ccccc4)cnc3[C@H]21 (racemic) [Example 80, (rac)-cis-Methyl 7-(phenylethynyl)-2,3,3a,4,5,9b-hexahydro-1H-pyrrolo[3,2-h]quinoline-1-carboxylate]
- h left shift [1, 5]: 1.5-fold
- r left shift (mGluR5 receptors; [6]): 1.8-fold
- EC50 (mGluR5 receptors; [7]): 0.0355 µM

Structure (SMILES): CCCN1CCO[C@@H]2c3cc(C#Cc4ccccc4)cnc3CC[C@@H]21 (single isomer, unassigned) [Example 16, cis-9-(Phenylethynyl)-4-propyl-3,4,4a,5,6,10b-hexahydro-2H-[1,4]oxazino[2,3-f]quinoline]
- h left shift [1, 2]: 3.8-fold
- EC50 ([1]; Table A1): 0.047 µM
- r left shift (mGluR5 receptors; [3]): 6.0-fold
- EC50 (mGluR5 receptors; [4]): 0.453 µM

Structure (SMILES): Cn1ncc2c1-c1cc(C#Cc3ccccc3)cnc1CC2 [Example 28, 1-Methyl-8-(phenylethynyl)-4,5-dihydro-1H-pyrazolo[3,4-f]quinoline]
- h left shift [1, 2]: 2.4-fold
- EC50 ([1]; Table A1): 0.0192 µM
- r left shift (mGluR5 receptors; [3]): 2.2-fold

Structure (SMILES): CC1(C(=O)N2CCc3ncc(C#Cc4ccccc4)cc3C2)COC1 [Example 36, (3-Methyloxetan-3-yl)(3-(phenylethynyl)-7,8-dihydro-1,6-naphthyridin-6(5H)-yl)methanone]
- h left shift [1, 2]: 2.4-fold
- EC50 ([1]; Table A1): 0.917 µM
- r left shift (mGluR5 receptors; [3]): 2.7-fold
- EC50 (mGluR5 receptors; [4]): 4.04 µM

More lines, now with the values ahead:

- h left shift [1, 2]: 2.1-fold
- EC50 ([1]; Table A1): 1.31 µM
- r left shift (mGluR5 receptors; [3]): 1.7-fold
- EC50 (mGluR5 receptors; [4]): 0.0883 µM
Structure (SMILES): O=C1OC2(CCCc3ncc(C#Cc4cccc(F)c4)cc32)CN1c1ccccc1 (racemic) [Example 67, (rac)-3'-((3-Fluorophenyl)ethynyl)-3-phenyl-7',8'-dihydro-6'H-spiro[oxazolidine-5,5'-quinolin]-2-one]

- h left shift [1, 2]: 2.7-fold
- EC50 ([1]; Table A1): 0.546 µM
- r left shift (mGluR5 receptors; [3]): 2.7-fold
- EC50 (mGluR5 receptors; [4]): 0.219 µM
Structure (SMILES): COC(=O)N1C[C@H]2Cc3cc(C#Cc4cccc(F)c4)cnc3[C@H]2C1 (racemic) [Example 73, (rac)-cis-Methyl 3-((3-fluorophenyl)ethynyl)-5a,6,8,8a-tetrahydropyrrolo[3',4':4,5]cyclopenta[1,2-b]pyridine-7(5H)-carboxylate]

- h left shift [1, 2]: 1.6-fold
- r left shift (mGluR5 receptors; [3]): 1.5-fold
- EC50 (mGluR5 receptors; [4]): 0.0101 µM
Structure (SMILES): O=C1OC2(CCCc3ncc(C#Cc4ccccc4)cc32)CN1C1CC1 (racemic) [Example 74, (rac)-3-Cyclopropyl-3'-(phenylethynyl)-7',8'-dihydro-6'H-spiro[oxazolidine-5,5'-quinolin]-2-one]

- h left shift [1, 2]: 2.6-fold
- EC50 ([1]; Table A1): 0.0647 µM
- r left shift (mGluR5 receptors; [3]): 4.1-fold
- EC50 (mGluR5 receptors; [4]): 0.167 µM
Structure (SMILES): COC(=O)N1CC2Cc3cc(C#Cc4ccccc4)cnc3C2C1 (racemic) [Example 79, (rac)-Methyl 3-(phenylethynyl)-5a,6,8,8a-tetrahydropyrrolo[3',4':4,5]cyclopenta[1,2-b]pyridine-7(5H)-carboxylate]

- h left shift [1, 2]: 1.9-fold
- EC50 ([1]; Table A1): 0.727 µM
- r left shift (mGluR5 receptors; [3]): 1.6-fold
- EC50 (mGluR5 receptors; [4]): 0.233 µM
Structure (SMILES): CCCN1CC2(CCCc3ncc(C#Cc4ccccc4)cc32)OC1=O (racemic) [Example 82, (rac)-3'-(Phenylethynyl)-3-propyl-7',8'-dihydro-6'H-spiro[oxazolidine-5,5'-quinolin]-2-one]

- h left shift [1, 2]: 2.5-fold
- EC50 ([1]; Table A1): 0.345 µM
- r left shift (mGluR5 receptors; [3]): 3.0-fold
- EC50 (mGluR5 receptors; [4]): 0.256 µM
Structure (SMILES): COC(=O)N1CC2CCc3ncc(C#Cc4ccccc4)cc3C2C1 (centres unmarked) [Example 30, Methyl 8-(phenylethynyl)-3,3a,4,5-tetrahydro-1H-pyrrolo[3,4-f]quinoline-2(9bH)-carboxylate]

- h left shift [1, 2]: 2.6-fold
- EC50 ([1]; Table A1): 0.333 µM
- r left shift (mGluR5 receptors; [3]): 1.5-fold
- EC50 (mGluR5 receptors; [4]): 0.261 µM
Structure (SMILES): COC(=O)N1CC2CCc3ncc(C#Cc4cccc(F)c4)cc3C2C1 (centres unmarked) [Example 31, Methyl 8-((3-fluorophenyl)ethynyl)-3,3a,4,5-tetrahydro-1H-pyrrolo[3,4-f]quinoline-2(9bH)-carboxylate]

- h left shift [1, 2]: 2.3-fold
- EC50 ([1]; Table A1): 0.171 µM
- r left shift (mGluR5 receptors; [3]): 2.8-fold
- EC50 (mGluR5 receptors; [4]): 0.0679 µM
Structure (SMILES): CC(C)(C)C(=O)N1CCc2ncc(C#Cc3ccccc3)cc2C1 [Example 34, 2,2-Dimethyl-1-(3-(phenylethynyl)-7,8-dihydro-1,6-naphthyridin-6(5H)-yl)propan-1-one]
